Consider four molecules from ChEMBL document CHEMBL1152062, “Novel 4,5,6,7-tetrahydrobenzothiazole dopamine agonists display very low stereoselectivity in their interaction with dopamine receptors” (Bioorg Med Chem Lett, 1991).

Experiment [1] deals with T1, D(2) dopamine receptor (Rattus norvegicus, UniProt P61169). Kind of experiment: Affinity of the Compound for Dopamine receptor D2 in rat striatal membrane was determined in vitro using Dopamine Antagonist [3H]spiperone as ligand; Value ranges from (580-1050). It is filed as cell membranes, Striatum.
T1 sequence (P61169 whole entry): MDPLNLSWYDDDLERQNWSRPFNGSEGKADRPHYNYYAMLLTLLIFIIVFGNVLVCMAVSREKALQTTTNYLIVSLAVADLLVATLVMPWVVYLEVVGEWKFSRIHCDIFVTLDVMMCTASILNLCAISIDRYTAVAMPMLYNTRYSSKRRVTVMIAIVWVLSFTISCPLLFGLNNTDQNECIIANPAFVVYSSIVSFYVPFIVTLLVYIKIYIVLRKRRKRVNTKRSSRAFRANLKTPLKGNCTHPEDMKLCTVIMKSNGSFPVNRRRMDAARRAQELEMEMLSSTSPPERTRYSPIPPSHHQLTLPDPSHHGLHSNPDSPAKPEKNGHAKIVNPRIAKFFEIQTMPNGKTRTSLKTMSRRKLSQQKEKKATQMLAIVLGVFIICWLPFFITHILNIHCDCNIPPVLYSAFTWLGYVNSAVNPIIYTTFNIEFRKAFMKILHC
Experiment [2] has as its target T1, D(2) dopamine receptor. The experiment can be described thus: Affinity of the Compound for Dopamine receptor D2 in rat striatal membrane was determined in vitro using Dopamine agonist [3H]N-propylnorapomorphine as ligand; Value ranges from (204-360). It is filed as cell membranes, Striatum.
Experiment [3] deals with D(1A) dopamine receptor (Rattus norvegicus, UniProt P18901). Kind of experiment: Affinity of the Compound for Dopamine D1 receptor in rat striatal membrane was determined in vitro using Dopamine Antagonist [3H]SCH-23390 as ligand. Format: cell membranes, Striatum.
Chain of D(1A) dopamine receptor (P18901 whole entry): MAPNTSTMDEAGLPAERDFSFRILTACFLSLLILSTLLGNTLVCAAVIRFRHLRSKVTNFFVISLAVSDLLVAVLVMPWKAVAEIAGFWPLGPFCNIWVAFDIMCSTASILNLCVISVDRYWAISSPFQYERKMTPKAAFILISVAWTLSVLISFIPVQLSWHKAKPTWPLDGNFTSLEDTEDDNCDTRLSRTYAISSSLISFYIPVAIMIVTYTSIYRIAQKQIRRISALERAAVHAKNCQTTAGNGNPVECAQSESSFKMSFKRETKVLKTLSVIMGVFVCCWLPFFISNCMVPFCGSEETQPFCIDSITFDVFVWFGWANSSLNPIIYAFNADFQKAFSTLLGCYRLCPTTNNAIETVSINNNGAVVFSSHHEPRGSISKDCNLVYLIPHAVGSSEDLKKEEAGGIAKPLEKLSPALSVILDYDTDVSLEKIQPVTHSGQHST
Experiment [4] has as its system Rattus norvegicus. Kind of experiment: Dose required to inhibit the synthesis of DOPA in rat brain was determined intraperitoneally. Format: functional. The settings on record: ip.
The subject of experiment [5] is Rattus norvegicus. Kind of experiment: Percent inhibition of spontaneous DA neuronal firing in the substantia nigra of anesthetized rats was determined. Format: functional.
The target of experiment [6] is T1, D(2) dopamine receptor. The experiment can be described thus: Affinity of the Compound for Dopamine receptor D2 in rat striatal membrane was determined in vitro using Dopamine Antagonist [3H]spiperone as ligand; Value ranges from (270-500). Format: cell membranes, Striatum.
Experiment [7] addresses T1, D(2) dopamine receptor. The experiment can be described thus: Affinity of the Compound for Dopamine receptor D2 in rat striatal membrane was determined in vitro using Dopamine agonist [3H]N-propylnorapomorphine as ligand; Value ranges from (70-150). It is filed as cell membranes, Striatum.
Experiment [8] concerns the target T1, D(2) dopamine receptor. The experiment can be described thus: Affinity of the Compound for Dopamine receptor D2 in rat striatal membrane was determined in vitro using Dopamine Antagonist [3H]spiperone as ligand; Value ranges from (124-550). It is filed as cell membranes, Striatum.
Experiment [9] deals with T1, D(2) dopamine receptor. Kind of experiment: Affinity of the Compound for Dopamine receptor D2 in rat striatal membrane was determined in vitro using Dopamine agonist [3H]N-propylnorapomorphine as ligand; Value ranges from (80-119). It is filed as cell membranes, Striatum.
Experiment [10] concerns Rattus norvegicus. Kind of experiment: Percent reversal of the increase in rat striatum DOPA accumulation produced by pretreatment with GBL (750 mg/kg ip) and NSD 1015 (100 mg/kg) when 2 mg/kg was administered. Format: functional.

Molecules are shown by their SMILES.

For the molecule `Nc1nc2c(s1)C[C@@H](N1CCN(c3ccccn3)CC1)CC2`, the IC50 (usually the concentration at which inhibition is half-maximal) in [1] is 800 nM; in experiment [2], 280 nM; in experiment [3], greater than 15000 nM. Further, it took a dose of 4.8 mg/kg to reach the 50% effect level in experiment [4] (ED50). Moreover, the Inhibition (as a rule, the percentage by which the read-out fell short of the control) in [5] was determined as 100%.
On to `Nc1nc2c(s1)C[C@H](N1CCN(c3ccccn3)CC1)CC2`, for which the IC50 in [6] was 440 nM; in experiment [7] it was 105 nM; in experiment [3] it was greater than 15000 nM. The 50% effect level in [4] (ED50) was put at a dose of 7 mg/kg. Besides, the Inhibition in experiment [5] is 85%.
Consider `Nc1nc2c(s1)CC(N1CCN(c3ccccn3)CC1)CC2` (racemic), for which the figures for the IC50 in [8], in experiment [9] and in [3] were 320 nM, 100 nM and greater than 15000 nM, respectively. For the same molecule, the ED50 (as a rule, the dose that gives a 50% effect, or the effect in half of the subjects) in experiment [4] was 4.4 mg/kg. In [5], this molecule showed an Inhibition of 97%.
Consider `CN1CCc2cccc3c2[C@H]1Cc1ccc(O)c(O)c1-3` [APOMORPHINE], for which, in experiment [5], the Inhibition came out at 100%. The Reversal in experiment [10] came out at 100%.
